This passage reports AC50, EC50 and IC50 results from ChEMBL document CHEMBL1201862, “PubChem BioAssay data set” (2004).

Calls of active or inactive are those of the source. Bounds are passed on as bounds.

Test [1] concerns the target Trypsin (Sus scrofa, UniProt P00761). Description: trypsin protease activity blockade – biochemical, quenched peptide fluorescence, cherry-pick, selectivity assay for Rce1 protease inhibitor project, dose response (AID 488789).
Test [2] addresses CAAX prenyl protease 1 (Saccharomyces cerevisiae S288c, UniProt P47154). Description: yeast CAAX protease Ste24 inhibition – biochemical, S. cerevisiae, plate reader, cherry-pick, dose response (AID 488815).
Test [3] deals with T1, CAAX prenyl protease 2 (Homo sapiens, UniProt Q9Y256).
T1 sequence (Q9Y256 whole entry): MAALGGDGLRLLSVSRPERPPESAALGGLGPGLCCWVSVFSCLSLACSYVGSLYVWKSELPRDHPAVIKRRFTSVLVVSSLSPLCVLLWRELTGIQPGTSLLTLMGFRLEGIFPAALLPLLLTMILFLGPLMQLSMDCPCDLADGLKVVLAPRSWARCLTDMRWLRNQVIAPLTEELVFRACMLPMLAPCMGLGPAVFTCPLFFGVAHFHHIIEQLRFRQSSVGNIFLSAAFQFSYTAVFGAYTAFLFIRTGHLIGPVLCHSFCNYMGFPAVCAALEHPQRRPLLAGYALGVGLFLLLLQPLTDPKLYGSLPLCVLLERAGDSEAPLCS
Description: inhibition of Ras-converting CAAX protease Rce1 – biochemical, yeast membranes, quenched-peptide fluorescence, cherry-pick, dose response (AID 588849).

The nature of test [4]: cells. The test is classed as functional, cell-based.
A short description of test [5]: cells. In kind it is functional, cell-based. This is another data set of the same source.
Test [6] can be described thus: Luminescence Cell-Based Dose Retest to Confirm Inhibitors of Cancer Stem Cells. [Related pubchem assays (depositor defined):AID2717, AID2721]. The test is classed as functional. As to conditions: Homo sapiens.
For test [7], the target named is T2, Heat shock factor protein 1 (Mus musculus, UniProt P38532).
T2 sequence (P38532 whole entry): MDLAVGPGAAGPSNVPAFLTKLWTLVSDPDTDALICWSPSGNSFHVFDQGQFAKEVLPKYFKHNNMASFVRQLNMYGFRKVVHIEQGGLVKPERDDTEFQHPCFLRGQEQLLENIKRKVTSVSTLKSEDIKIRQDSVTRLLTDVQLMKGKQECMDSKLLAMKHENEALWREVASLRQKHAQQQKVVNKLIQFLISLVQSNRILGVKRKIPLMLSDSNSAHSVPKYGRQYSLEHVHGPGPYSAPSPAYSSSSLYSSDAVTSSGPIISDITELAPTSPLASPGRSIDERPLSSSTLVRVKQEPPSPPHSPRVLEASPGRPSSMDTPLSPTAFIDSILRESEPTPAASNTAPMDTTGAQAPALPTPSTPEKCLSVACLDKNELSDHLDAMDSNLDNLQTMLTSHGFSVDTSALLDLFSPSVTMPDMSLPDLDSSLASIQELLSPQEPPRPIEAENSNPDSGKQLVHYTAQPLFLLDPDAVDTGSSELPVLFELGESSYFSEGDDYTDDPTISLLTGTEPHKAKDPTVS
In words: enhancement of HSF1-driven luciferase signal – cell-based, NIH3T3, luminescence, dose retest, confirmation (AID 435004).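 Also: stress induced by proteasome inhibitor MG132 added 30 min after compound; luciferase reporter driven by HSF1 response element in NIH3T3 cells; actives raise luminescence as potentiators of the MG132 stress response.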 In kind it is functional.

Test [8] has as its target T3, Hexokinase HKDC1 (Homo sapiens, UniProt Q2TB90).
T3 sequence (Q2TB90 whole entry): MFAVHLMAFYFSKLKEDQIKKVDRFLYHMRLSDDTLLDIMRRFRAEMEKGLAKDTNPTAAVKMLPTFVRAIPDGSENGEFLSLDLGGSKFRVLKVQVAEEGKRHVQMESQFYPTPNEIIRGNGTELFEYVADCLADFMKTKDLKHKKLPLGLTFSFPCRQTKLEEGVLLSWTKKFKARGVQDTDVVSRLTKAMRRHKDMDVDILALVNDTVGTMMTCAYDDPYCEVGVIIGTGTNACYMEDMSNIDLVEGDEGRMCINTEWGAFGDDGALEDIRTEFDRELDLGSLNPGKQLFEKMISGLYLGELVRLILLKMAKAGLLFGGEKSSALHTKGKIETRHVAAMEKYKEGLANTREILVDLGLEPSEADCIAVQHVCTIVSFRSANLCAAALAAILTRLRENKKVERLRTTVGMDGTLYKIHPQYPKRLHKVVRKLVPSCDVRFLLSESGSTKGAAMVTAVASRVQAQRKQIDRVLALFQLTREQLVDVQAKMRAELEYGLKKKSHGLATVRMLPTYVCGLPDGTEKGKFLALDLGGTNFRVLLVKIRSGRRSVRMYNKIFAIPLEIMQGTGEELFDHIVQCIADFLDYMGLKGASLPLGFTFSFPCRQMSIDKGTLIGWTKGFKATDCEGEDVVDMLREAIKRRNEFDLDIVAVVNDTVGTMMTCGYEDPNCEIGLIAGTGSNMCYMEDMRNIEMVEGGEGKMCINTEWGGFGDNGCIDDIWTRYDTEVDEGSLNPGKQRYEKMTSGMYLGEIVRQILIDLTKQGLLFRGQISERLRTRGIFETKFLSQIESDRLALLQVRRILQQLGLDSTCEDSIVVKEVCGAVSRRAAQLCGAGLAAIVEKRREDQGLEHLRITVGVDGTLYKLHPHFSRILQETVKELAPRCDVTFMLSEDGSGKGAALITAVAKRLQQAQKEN
Description: inhibition of HKDC1 glucose phosphorylation – biochemical, W721R variant, dose response (AID 504729). In kind it is functional.

Test [9] concerns the target Lysine-specific demethylase 4A (Homo sapiens, UniProt O75164). In words: inhibition of JMJD2A H3K9me3 demethylation – biochemical, DELFIA europium, cherry-picked samples, selectivity assay for GASC-1 inhibitor project, dose response (AID 488840).
For test [10], the target named is Lysine-specific demethylase 4C (Homo sapiens, UniProt Q9H3R0). Description: inhibition of JMJD2C H3K9me3 demethylation – biochemical, DELFIA europium, cherry-picked samples, dose response (AID 488835). In kind it is functional.
For test [11], the system named is INS1. Description: INS-1E survival protection against cytokine death – cell-based, luminescence, retest, dose response (AID 449756).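 Also: cell death triggered by IL-1 beta plus TNF-alpha plus IFN-gamma mixture; protective hits raise ATP signal compared with cytokine alone wells.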 As to conditions: Rattus norvegicus. The test is classed as functional.
The test system of test [12] is Candida albicans. In words: Candida growth inhibition combined with fluconazole – CaCi-2 strain, Alamar Blue, dry powder, set 3, dose response (AID 488907). The test is classed as functional, organism-based. Background: Alamar Blue is a resazurin reagent that responds to reducing activity.
Test [13] has as its target Intestinal-type alkaline phosphatase (Mus musculus, UniProt P24822). Description: PubChem AID 488875. In kind it is functional.
The target in test [14] is T4, Intestinal-type alkaline phosphatase (Homo sapiens, UniProt P09923). In words: human intestinal alkaline phosphatase activators, dose response, biochemical, luminescence, uHTS hits (AID 463120). The test is classed as functional.
In test [15] the target is T4, Intestinal-type alkaline phosphatase. In words: activation of human intestinal alkaline phosphatase – biochemical, luminescent, uHTS hits, set 2, dose response (AID 488817).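 Also: potency of activators that raise enzyme activity.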 In kind it is functional.
Test [16] concerns the target T5, Alkaline phosphatase, tissue-nonspecific isozyme (Homo sapiens, UniProt P05186).
T5 sequence (P05186 whole entry): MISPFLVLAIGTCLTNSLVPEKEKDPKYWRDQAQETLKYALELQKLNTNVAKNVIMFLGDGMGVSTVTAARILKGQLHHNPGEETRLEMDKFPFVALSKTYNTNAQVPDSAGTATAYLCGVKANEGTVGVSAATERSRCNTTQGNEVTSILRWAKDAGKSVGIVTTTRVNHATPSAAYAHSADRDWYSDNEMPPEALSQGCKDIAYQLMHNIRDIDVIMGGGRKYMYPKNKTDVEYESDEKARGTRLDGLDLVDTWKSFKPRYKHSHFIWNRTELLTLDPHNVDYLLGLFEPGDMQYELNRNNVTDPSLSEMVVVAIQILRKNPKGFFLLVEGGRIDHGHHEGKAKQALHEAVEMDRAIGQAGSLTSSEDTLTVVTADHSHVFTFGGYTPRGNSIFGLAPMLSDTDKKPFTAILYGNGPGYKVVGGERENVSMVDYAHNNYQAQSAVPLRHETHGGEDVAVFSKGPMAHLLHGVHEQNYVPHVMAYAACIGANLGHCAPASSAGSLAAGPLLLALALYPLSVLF
Description: activation of tissue-nonspecific alkaline phosphatase – biochemical, TNAP isozyme, human IAP uHTS hits, selectivity assay for human IAP activator project, dose response (AID 488886).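 Also: potency of compounds raising TNAP activity as a selectivity check on IAP activators.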 In kind it is functional.

The nature of test [17]: Luminescence Cell-Based Dose Response Follow up to Identify Inhibitors of Platelet Dense Granule Release. [Related pubchem assays (depositor defined):AID1663, AID1678, AID1889, AID2519]. In kind it is functional.
Test [18] has as its target T6, Voltage-gated N-type calcium channel alpha-1B subunit/Amyloid beta A4 precursor protein-binding family A member 1 (Homo sapiens, UniProt Q00975+Q02410). The test is classed as protein assay.
Test [19] addresses T6, Voltage-gated N-type calcium channel alpha-1B subunit/Amyloid beta A4 precursor protein-binding family A member 1. In kind it is protein assay. This is another data set of the same source.
In test [20] the target is T7, Apoptotic protease-activating factor 1 (Homo sapiens, UniProt O14727).
T7 sequence (O14727 whole entry): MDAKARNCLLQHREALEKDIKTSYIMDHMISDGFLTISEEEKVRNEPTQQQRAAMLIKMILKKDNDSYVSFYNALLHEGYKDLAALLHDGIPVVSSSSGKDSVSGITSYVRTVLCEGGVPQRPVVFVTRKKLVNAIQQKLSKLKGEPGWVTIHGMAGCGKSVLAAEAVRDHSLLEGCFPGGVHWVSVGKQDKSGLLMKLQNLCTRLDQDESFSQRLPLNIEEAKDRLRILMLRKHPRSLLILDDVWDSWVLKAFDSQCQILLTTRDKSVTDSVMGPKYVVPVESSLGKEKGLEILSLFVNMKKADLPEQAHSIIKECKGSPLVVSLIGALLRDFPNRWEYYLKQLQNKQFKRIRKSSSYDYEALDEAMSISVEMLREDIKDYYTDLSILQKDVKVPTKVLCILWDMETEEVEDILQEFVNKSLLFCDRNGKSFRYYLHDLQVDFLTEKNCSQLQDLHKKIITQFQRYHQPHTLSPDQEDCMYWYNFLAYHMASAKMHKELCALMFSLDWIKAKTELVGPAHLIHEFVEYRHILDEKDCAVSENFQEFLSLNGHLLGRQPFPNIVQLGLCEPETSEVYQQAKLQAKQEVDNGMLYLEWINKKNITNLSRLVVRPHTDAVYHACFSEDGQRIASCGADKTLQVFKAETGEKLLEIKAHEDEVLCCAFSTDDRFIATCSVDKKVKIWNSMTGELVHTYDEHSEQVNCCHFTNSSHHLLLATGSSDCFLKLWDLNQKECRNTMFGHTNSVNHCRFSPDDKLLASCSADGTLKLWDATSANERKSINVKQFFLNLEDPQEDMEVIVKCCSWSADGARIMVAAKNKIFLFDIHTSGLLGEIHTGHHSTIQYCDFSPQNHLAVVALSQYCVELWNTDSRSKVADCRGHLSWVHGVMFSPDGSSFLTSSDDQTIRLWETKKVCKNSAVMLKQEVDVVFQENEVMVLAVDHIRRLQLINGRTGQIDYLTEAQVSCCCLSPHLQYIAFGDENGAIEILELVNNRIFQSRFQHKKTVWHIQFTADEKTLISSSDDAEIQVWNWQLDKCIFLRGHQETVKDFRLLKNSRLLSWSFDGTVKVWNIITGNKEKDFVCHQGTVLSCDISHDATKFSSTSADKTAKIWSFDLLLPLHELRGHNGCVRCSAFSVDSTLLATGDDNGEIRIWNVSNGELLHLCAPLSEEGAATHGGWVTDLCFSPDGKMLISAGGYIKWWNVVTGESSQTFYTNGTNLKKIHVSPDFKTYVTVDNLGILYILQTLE
Description: activation of Apaf-1 mediated apoptosis – fluorescent, uHTS hits, dose response (AID 588554). In kind it is functional.

Test [21] has as its system HEK293. In words: cells. To be noted: Homo sapiens.
Test [22] has as its system HEK293. Description: cells. As to conditions: Homo sapiens. The source holds these as a separate data set.

T4 sequence (P09923 whole entry): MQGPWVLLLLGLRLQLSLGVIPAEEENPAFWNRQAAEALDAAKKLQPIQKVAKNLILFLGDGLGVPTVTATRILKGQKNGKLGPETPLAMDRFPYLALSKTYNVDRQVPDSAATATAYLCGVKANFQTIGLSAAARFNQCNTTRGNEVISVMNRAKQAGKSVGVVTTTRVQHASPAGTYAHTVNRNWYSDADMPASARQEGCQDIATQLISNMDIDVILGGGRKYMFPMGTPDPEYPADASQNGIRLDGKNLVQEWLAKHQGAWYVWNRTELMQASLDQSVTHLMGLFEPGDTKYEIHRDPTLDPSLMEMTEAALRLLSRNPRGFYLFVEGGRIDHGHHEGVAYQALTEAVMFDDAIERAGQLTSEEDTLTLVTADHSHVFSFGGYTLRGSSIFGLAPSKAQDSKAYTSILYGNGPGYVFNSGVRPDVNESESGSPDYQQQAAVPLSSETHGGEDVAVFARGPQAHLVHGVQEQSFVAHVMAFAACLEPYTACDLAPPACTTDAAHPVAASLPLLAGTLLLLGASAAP
T6 sequence (Q00975 whole entry): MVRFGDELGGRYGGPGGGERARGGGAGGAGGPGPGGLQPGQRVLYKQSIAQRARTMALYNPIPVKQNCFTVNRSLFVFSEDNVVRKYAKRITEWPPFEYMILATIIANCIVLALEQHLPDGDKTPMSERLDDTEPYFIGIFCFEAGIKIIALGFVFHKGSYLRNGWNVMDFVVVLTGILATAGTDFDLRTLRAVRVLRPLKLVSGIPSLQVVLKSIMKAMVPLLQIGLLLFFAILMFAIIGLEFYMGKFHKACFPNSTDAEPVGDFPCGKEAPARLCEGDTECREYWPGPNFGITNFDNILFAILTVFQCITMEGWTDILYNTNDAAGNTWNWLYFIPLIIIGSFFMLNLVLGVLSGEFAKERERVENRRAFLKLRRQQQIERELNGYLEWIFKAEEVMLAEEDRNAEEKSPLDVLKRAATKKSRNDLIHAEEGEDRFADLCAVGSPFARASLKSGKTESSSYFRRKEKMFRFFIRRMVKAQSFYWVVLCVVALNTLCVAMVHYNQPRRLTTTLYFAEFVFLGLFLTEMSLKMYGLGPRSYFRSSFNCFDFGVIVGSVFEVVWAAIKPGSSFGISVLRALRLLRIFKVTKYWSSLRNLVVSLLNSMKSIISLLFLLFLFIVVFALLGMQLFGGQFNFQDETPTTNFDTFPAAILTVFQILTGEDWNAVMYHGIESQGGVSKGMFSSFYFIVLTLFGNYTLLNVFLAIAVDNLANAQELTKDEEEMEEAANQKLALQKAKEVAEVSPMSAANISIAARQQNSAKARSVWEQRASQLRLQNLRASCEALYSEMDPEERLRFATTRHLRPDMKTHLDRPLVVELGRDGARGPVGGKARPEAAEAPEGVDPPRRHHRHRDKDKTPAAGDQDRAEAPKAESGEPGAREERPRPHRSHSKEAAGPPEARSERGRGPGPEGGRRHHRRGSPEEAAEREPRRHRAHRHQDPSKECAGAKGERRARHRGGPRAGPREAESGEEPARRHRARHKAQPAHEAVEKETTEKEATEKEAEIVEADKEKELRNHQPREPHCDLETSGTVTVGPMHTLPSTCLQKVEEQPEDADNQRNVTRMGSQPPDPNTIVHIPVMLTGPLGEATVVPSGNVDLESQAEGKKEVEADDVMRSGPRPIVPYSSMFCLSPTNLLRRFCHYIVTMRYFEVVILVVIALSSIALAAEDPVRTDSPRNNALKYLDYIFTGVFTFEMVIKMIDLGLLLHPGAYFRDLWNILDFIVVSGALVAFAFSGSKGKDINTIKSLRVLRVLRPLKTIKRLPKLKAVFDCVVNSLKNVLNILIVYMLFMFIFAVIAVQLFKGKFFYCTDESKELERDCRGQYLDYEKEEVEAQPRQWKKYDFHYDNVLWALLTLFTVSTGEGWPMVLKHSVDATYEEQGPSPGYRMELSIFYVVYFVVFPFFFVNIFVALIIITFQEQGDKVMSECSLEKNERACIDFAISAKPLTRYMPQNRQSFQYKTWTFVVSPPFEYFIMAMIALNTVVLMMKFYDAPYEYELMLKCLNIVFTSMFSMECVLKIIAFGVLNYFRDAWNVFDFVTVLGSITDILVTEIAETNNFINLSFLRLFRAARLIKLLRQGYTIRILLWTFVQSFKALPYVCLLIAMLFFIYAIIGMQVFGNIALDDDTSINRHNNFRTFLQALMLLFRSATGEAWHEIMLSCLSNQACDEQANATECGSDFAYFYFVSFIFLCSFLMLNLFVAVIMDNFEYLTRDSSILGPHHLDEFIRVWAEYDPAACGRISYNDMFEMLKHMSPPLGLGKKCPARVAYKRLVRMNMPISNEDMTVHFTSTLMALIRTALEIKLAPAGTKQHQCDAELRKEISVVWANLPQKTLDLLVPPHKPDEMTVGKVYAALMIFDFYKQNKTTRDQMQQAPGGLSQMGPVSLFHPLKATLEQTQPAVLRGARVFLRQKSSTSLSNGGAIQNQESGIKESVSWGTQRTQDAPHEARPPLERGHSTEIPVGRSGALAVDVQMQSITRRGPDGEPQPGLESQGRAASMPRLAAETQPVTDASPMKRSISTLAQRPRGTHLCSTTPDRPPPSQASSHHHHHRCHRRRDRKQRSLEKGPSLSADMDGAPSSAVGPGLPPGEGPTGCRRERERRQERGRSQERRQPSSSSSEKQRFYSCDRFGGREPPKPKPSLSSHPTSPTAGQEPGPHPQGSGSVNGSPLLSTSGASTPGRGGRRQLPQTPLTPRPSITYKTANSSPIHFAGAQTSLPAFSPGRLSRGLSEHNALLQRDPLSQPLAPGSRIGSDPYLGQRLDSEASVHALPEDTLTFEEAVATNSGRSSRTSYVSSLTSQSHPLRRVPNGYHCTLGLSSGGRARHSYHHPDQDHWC
T6 sequence (Q02410 whole entry): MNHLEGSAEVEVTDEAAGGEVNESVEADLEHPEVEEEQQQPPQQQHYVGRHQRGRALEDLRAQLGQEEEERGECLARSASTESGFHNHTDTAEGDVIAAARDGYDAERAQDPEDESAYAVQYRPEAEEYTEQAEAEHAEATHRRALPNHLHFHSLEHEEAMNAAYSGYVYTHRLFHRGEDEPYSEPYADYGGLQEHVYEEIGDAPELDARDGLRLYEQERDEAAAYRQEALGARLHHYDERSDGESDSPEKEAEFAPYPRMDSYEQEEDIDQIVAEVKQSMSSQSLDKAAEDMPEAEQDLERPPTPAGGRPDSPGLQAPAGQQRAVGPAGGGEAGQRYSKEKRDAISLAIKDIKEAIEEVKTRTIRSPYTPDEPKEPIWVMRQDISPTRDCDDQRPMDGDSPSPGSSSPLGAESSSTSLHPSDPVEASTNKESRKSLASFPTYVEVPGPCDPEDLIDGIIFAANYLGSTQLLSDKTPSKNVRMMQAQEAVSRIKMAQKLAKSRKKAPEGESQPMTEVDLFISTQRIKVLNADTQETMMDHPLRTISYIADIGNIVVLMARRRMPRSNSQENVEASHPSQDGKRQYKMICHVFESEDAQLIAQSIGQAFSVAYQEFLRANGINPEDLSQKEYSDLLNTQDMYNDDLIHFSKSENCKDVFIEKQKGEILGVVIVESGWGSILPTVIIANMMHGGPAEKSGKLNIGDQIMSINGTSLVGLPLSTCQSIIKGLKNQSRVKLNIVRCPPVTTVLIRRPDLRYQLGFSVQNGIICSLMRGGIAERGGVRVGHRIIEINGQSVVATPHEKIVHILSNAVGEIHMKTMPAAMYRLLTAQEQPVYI
Chain of Trypsin (P00761 whole entry): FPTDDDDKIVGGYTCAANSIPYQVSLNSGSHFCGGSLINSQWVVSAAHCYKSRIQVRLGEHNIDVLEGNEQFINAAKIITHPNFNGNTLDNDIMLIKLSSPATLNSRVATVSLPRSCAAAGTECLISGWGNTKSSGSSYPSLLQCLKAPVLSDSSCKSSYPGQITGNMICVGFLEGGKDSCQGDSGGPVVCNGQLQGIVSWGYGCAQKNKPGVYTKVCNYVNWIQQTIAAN
Chain of Intestinal-type alkaline phosphatase (Mus musculus, UniProt P24822) (P24822 whole entry): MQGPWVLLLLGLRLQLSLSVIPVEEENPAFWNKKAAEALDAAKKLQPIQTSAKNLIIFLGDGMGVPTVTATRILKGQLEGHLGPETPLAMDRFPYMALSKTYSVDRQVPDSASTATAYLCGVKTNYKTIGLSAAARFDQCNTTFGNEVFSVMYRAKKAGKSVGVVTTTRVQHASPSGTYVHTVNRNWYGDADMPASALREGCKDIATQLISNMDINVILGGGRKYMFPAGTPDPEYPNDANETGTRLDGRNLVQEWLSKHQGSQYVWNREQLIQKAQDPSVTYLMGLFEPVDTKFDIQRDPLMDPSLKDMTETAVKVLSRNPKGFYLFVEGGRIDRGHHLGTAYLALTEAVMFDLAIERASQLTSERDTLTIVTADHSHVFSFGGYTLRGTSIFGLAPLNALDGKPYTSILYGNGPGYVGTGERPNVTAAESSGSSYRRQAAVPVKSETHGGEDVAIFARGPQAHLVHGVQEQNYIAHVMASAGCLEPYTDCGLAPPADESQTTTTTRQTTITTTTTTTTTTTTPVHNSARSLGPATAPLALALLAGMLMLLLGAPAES
Chain of CAAX prenyl protease 1 (P47154 whole entry): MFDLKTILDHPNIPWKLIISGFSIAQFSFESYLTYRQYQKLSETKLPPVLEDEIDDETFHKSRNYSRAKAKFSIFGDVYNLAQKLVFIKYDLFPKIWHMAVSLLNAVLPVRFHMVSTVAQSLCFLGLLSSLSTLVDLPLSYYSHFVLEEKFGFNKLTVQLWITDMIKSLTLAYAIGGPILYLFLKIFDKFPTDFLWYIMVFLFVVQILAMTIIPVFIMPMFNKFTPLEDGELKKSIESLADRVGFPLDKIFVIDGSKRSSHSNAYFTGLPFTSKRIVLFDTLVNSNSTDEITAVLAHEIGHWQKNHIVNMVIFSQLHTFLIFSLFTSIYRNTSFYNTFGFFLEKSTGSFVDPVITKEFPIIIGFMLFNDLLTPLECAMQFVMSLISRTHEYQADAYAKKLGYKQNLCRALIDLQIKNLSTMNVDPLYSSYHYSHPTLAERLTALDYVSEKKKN

Usually AC50 stands for the concentration giving half of the maximal activity seen. Turning to `COc1ccc2c(c1)cc(C(=O)N[C@@H](CCSC)C(=O)N1CCC(C(=O)O)CC1)n2C`, the values for the AC50 in test [1], in test [2] and in [3] were 27.2 µM (active), 8.08 µM (active) and 22.2 µM (active), respectively.

Usually EC50 stands for the concentration at which the effect is half-maximal. What is called IC50 is the concentration needed to halve the response being measured. Take `Oc1ccc(/C=N/Nc2ncc(Br)cn2)c(O)c1`: the EC50 in test [4] is 41.1 µM (active); in test [5], > 350 µM (not active); in test [7] it was 18.6 µM (active). Also, the AC50 is 4.55 µM (active) in test [6], > 60 µM (inactive) in [9], 0.829 µM (active) in test [10] and 1.54 µM (active) in [11]. In addition, in test [8], the IC50 was 1.68 µM (active).

In the case of `Cc1ccnc(N2CCN(C(=O)c3ccc(Cl)cc3)CC2)c1`, the AC50 in test [12] is 0.0873 µM (active).

With `COc1cc(NC(=O)NCC2CCN(Cc3ccccc3Cl)CC2)cc(OC)c1OC`, the EC50 in [13] was 33.9 µM (active); in [14], 61.3 µM (active); in test [15], 46.9 µM (active); in test [16] it was 63.1 µM (active).

In the case of `CCCC(=O)Nc1cccc(NC(=O)Cc2ccc(Cl)cc2)c1`, the EC50 in test [17] is 500 µM (inactive).

Turning to `Cc1cc(C)c2c(=O)c(/C=C3\NC(=S)NC3=O)coc2c1`, the IC50 in test [18] was 18.6 µM (active); in [19], > 50 µM (inactive). Also, the EC50 in test [20] is 7.82 µM (active).

For the compound `COc1cc2c(cc1OC)-c1cc(OCc3cccnc3)nc(=O)n1CC2`, the EC50 in test [21] and in test [22] was > 59.6 µM (inactive) in each case.
